Structures are written as SMILES. Square brackets hold non-standard residues; d marks the D form. Peptide text beside a SMILES is read from it. * marks the point of attachment. X44 = Cn1cc([C@H]2C[C@H]2C(=O)*)cn1; X5 = Cn1cc([C@@H]2C[C@H]2C(=O)*)cn1; Butanoyl(4-Ph) = O=C(CCCc1ccccc1)*; X16 = O=C(c1cc(-c2ccncc2)[nH]n1)*; X45 = CC(=O)c1ccc(OCCCC(=O)*)cc1; hArg = N=C(N)NCCCC[C@H](N)C(=O)O; X13 = O=C(CCN1CCS(=O)(=O)CC1)*; X38 = O=C(CC1CCS(=O)(=O)C1)*; X19 = Cc1cc(C)n(CCC(=O)*)n1; X31 = Cc1ccc(OCCCC(=O)*)cc1; X30 = O=C(CCc1cccc(O)c1)*; X4 = Cc1ccc(OCCC(=O)*)cc1; X27 = O=C(CCCN1CCOCC1)*; Cbz = O=C(OCc1ccccc1)*; X32 = O=C(CCN1CCOCC1)*; GABA = NCCCC(=O)O

For assay [1], the target named is PCSK9 (Homo sapiens, UniProt Q8NBP7). Description: PCSK9/EGF(A) TR-FRET binding assay. The settings on record: TR-FRET; Table 8E, additional compounds; read-out: PCSK9/EGF(A) IC50. Background: Time-resolved FRET reads energy transfer from a long-lived donor to a nearby acceptor.
For assay [2], the target named is T1, PCSK9Δhelix (Homo sapiens, UniProt Q8NBP7).
T1 construct: Human PCSK9 construct M1-Q692 with an engineered TEV site (residue deletion Y166, R167); made in house; host or cells: CHO
Description: PCSK9Δhelix/Ab20 TR-FRET binding assay. As to conditions: TR-FRET; Table 8E, additional compounds; read-out: PCSK9Δhelix/Ab20 IC50.

PCSK9, sequence (Q8NBP7 153-692): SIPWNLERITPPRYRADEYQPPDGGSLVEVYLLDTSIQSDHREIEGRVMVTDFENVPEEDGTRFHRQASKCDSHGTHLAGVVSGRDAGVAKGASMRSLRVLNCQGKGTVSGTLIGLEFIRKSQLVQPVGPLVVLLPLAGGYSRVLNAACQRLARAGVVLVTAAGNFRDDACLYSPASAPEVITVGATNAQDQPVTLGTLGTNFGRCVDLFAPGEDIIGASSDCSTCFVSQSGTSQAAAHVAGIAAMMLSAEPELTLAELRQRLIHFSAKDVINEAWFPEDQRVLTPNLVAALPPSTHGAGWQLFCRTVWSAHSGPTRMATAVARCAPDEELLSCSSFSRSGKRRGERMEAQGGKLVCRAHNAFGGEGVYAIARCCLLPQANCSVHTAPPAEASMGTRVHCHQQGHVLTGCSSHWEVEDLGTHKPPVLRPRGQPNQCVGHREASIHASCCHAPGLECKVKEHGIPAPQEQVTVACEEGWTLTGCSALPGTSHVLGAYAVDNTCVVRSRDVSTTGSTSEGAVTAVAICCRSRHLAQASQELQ
PCSK9, sequence (Q8NBP7 31-152 partner limits assumed): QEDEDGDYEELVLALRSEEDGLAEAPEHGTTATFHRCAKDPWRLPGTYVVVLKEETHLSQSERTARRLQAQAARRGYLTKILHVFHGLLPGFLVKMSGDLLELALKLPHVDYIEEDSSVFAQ
T1 sequence (Q8NBP7 with tags, fused parts or gaps limits assumed): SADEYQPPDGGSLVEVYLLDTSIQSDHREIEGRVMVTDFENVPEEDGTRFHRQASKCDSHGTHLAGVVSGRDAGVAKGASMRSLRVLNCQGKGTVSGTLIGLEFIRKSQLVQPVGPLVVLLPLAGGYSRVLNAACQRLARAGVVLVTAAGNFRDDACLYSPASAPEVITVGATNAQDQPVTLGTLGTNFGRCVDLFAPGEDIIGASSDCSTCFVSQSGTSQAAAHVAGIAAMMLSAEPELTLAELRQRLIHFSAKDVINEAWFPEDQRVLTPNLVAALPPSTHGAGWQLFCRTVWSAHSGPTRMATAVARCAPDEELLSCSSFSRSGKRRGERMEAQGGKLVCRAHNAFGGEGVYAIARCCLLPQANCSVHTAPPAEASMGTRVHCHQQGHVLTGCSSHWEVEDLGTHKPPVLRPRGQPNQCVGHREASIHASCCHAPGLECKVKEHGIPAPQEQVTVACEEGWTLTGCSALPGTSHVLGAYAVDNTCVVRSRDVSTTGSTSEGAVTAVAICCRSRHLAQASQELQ
T1 sequence (Q8NBP7 31-152 partner limits assumed): as the sequence (Q8NBP7 31-152 partner limits assumed) above

As to `CC[C@H](C)[C@H](NC(=O)[C@H](CCCNC(=N)N)NC(=O)[C@@H](NC(=O)[C@H](CC(C)C)NC(=O)[C@H](CC(N)=O)NC(=O)[C@H](Cc1c[nH]c2ccccc12)NC(=O)CCCNC(=O)OCc1ccccc1)C(C)C)C(=O)NCC(=O)N[C@@H](CC(C)C)C(=O)N[C@H](C(=O)N[C@@H](CCCNC(=N)N)C(N)=O)[C@@H](C)O` [Compound 169] ({Cbz-GABA}-WNLVRIGLTR-NH2), the IC50 in assay [1] was ≥ 50 µM; in assay [2], 6.8 µM.

Regarding `CC[C@H](C)[C@H](NC(=O)[C@H](CCCNC(=N)N)NC(=O)[C@@H](NC(=O)[C@H](CC(C)C)NC(=O)[C@H](CC(N)=O)NC(=O)[C@H](Cc1c[nH]c2ccccc12)NC(=O)CCCN1CCOCC1)C(C)C)C(=O)NCC(=O)N[C@@H](CC(C)C)C(=O)N[C@H](C(=O)N[C@@H](CCCNC(=N)N)C(N)=O)[C@@H](C)O` [Compound 162] (X27-WNLVRIGLTR-NH2), the IC50 in assay [1] was ≥ 50 µM; in assay [2] it was 37 µM.

Consider `CC[C@H](C)[C@H](NC(=O)[C@H](CCCNC(=N)N)NC(=O)[C@@H](NC(=O)[C@H](CC(C)C)NC(=O)[C@H](CC(N)=O)NC(=O)[C@H](Cc1c[nH]c2ccccc12)NC(=O)CCN1CCS(=O)(=O)CC1)C(C)C)C(=O)NCC(=O)N[C@@H](CC(C)C)C(=O)N[C@@H](CC(C)C)C(=O)N[C@@H](CCCNC(=N)N)C(N)=O` [Compound 126] (X13-WNLVRIGLLR-NH2), for which the figures for the IC50 in assay [1] and in assay [2] were ≥ 50 µM and 19 µM, respectively.

For the molecule `CC[C@H](C)[C@H](NC(=O)[C@H](CCCNC(=N)N)NC(=O)[C@@H](NC(=O)[C@H](CC(C)C)NC(=O)[C@H](CC(N)=O)NC(=O)[C@H](Cc1c[nH]c2ccccc12)NC(=O)CC1CCS(=O)(=O)C1)C(C)C)C(=O)NCC(=O)N[C@@H](CC(C)C)C(=O)N[C@@H](CC(C)C)C(=O)N[C@@H](CCCNC(=N)N)C(N)=O` (stereo partly drawn) [Compound 139] (X38-WNLVRIGLLR-NH2), the IC50 in assay [1] was ≥ 50 µM; in assay [2], 19 µM.

Consider `CC[C@H](C)[C@H](NC(=O)[C@H](CCCCNC(=N)N)NC(=O)[C@@H](NC(=O)[C@H](CC(C)C)NC(=O)[C@H](CC(N)=O)NC(=O)[C@H](Cc1c[nH]c2ccccc12)NC(=O)CCc1cccc(O)c1)C(C)C)C(=O)NCC(=O)N[C@@H](CC(C)C)C(=O)N[C@@H](CC(C)C)C(=O)N[C@@H](CCCNC(=N)N)C(N)=O` [Compound 217] (X30-WNLV[hArg]IGLLR-NH2), for which the IC50 in assay [1] amounted to 4.1 µM; in assay [2] it was 0.39 µM.

`CC[C@H](C)[C@H](NC(=O)[C@H](CCCCNC(=N)N)NC(=O)[C@@H](NC(=O)[C@H](CC(C)C)NC(=O)[C@H](CC(N)=O)NC(=O)[C@H](Cc1c[nH]c2ccccc12)NC(=O)CCCc1ccccc1)C(C)C)C(=O)NCC(=O)N[C@@H](CC(C)C)C(=O)N[C@@H](CC(C)C)C(=O)N[C@@H](CCCNC(=N)N)C(N)=O` [Compound 212] ({Butanoyl(4-Ph)}-WNLV[hArg]IGLLR-NH2): the IC50 in assay [1] was 15 µM; in assay [2], 1.6 µM.

Take `CC[C@H](C)[C@H](NC(=O)[C@H](CCCNC(=N)N)NC(=O)[C@@H](NC(=O)[C@H](CC(C)C)NC(=O)[C@H](CC(N)=O)NC(=O)[C@H](Cc1c[nH]c2ccccc12)NC(=O)[C@@H]1C[C@H]1c1cnn(C)c1)C(C)C)C(=O)NCC(=O)N[C@@H](CC(C)C)C(=O)N[C@@H](CC(C)C)C(=O)N[C@@H](CCCNC(=N)N)C(N)=O` [Compound 127] (X5-WNLVRIGLLR-NH2): the results for the IC50 in assay [1] and in assay [2] were ≥ 50 µM and 29 µM, respectively.

Regarding `CC[C@H](C)[C@H](NC(=O)[C@H](CCCNC(=N)N)NC(=O)[C@@H](NC(=O)[C@H](CC(C)C)NC(=O)[C@H](CC(N)=O)NC(=O)[C@H](Cc1c[nH]c2ccccc12)NC(=O)CCn1nc(C)cc1C)C(C)C)C(=O)NCC(=O)N[C@@H](CC(C)C)C(=O)N[C@@H](CC(C)C)C(=O)N[C@@H](CCCNC(=N)N)C(N)=O` [Compound 136] (X19-WNLVRIGLLR-NH2), the IC50 in assay [1] was ≥ 50 µM; in assay [2] it was 9 µM.

With `CC[C@H](C)[C@H](NC(=O)[C@H](CCCNC(=N)N)NC(=O)[C@@H](NC(=O)[C@H](CC(C)C)NC(=O)[C@H](CC(N)=O)NC(=O)[C@H](Cc1c[nH]c2ccccc12)NC(=O)[C@@H]1C[C@@H]1c1cnn(C)c1)C(C)C)C(=O)NCC(=O)N[C@@H](CC(C)C)C(=O)N[C@@H](CC(C)C)C(=O)N[C@@H](CCCNC(=N)N)C(N)=O` [Compound 135] (X44-WNLVRIGLLR-NH2), the IC50 in assay [1] was ≥ 50 µM; in assay [2] it was 10 µM.

For the molecule `CC[C@H](C)[C@H](NC(=O)[C@H](CCCNC(=N)N)NC(=O)[C@@H](NC(=O)[C@H](CC(C)C)NC(=O)[C@H](CC(N)=O)NC(=O)[C@H](Cc1c[nH]c2ccccc12)NC(=O)CCCOc1ccc(C(C)=O)cc1)C(C)C)C(=O)NCC(=O)N[C@@H](CC(C)C)C(=O)N[C@H](C(=O)N[C@@H](CCCNC(=N)N)C(N)=O)[C@@H](C)O` [Compound 183] (X45-WNLVRIGLTR-NH2), the IC50 amounted to 18 µM in assay [1] and 2.5 µM in assay [2].

As for `CC[C@H](C)[C@H](NC(=O)[C@H](CCCCNC(=N)N)NC(=O)[C@@H](NC(=O)[C@H](CC(C)C)NC(=O)[C@H](CC(N)=O)NC(=O)[C@H](Cc1c[nH]c2ccccc12)NC(=O)CCOc1ccc(C)cc1)C(C)C)C(=O)NCC(=O)N[C@@H](CC(C)C)C(=O)N[C@@H](CC(C)C)C(=O)N[C@@H](CCCNC(=N)N)C(N)=O` [Compound 211] (X4-WNLV[hArg]IGLLR-NH2), the values for the IC50 in assay [1] and in assay [2] were 14 µM and 3.8 µM, respectively.

Take `CC[C@H](C)[C@H](NC(=O)[C@H](CCCNC(=N)N)NC(=O)[C@@H](NC(=O)[C@H](CC(C)C)NC(=O)[C@H](CC(N)=O)NC(=O)[C@H](Cc1c[nH]c2ccccc12)NC(=O)c1cc(-c2ccncc2)[nH]n1)C(C)C)C(=O)NCC(=O)N[C@@H](CC(C)C)C(=O)N[C@@H](CC(C)C)C(=O)N[C@@H](CCCNC(=N)N)C(N)=O` [Compound 150] (X16-WNLVRIGLLR-NH2): the results for the IC50 in assay [1] and in assay [2] were 22 µM and 8.2 µM, respectively.

With `CC[C@H](C)[C@H](NC(=O)[C@H](CCCCNC(=N)N)NC(=O)[C@@H](NC(=O)[C@H](CC(C)C)NC(=O)[C@H](CC(N)=O)NC(=O)[C@H](Cc1c[nH]c2ccccc12)NC(=O)CCCOc1ccc(C)cc1)C(C)C)C(=O)NCC(=O)N[C@@H](CC(C)C)C(=O)N[C@@H](CC(C)C)C(=O)N[C@@H](CCCNC(=N)N)C(N)=O` [Compound 207] (X31-WNLV[hArg]IGLLR-NH2), the IC50 was determined as 1.3 µM in assay [1] and 0.32 µM in assay [2].

On to `CC[C@H](C)[C@H](NC(=O)[C@H](CCCCNC(=N)N)NC(=O)[C@@H](NC(=O)[C@H](CC(C)C)NC(=O)[C@H](CC(N)=O)NC(=O)[C@H](Cc1c[nH]c2ccccc12)NC(=O)[C@H](N)Cc1ccc(O)cc1)C(C)C)C(=O)NCC(=O)N[C@@H](CC(C)C)C(=O)N[C@@H](CC(C)C)C(=O)N[C@@H](CCCNC(=N)N)C(N)=O` [Compound 223] (H-[dY]WNLV[hArg]IGLLR-NH2), for which the IC50 in assay [1] was 21 µM; in assay [2], 1.4 µM.

As for `CC[C@H](C)[C@H](NC(=O)[C@H](CCCNC(=N)N)NC(=O)[C@@H](NC(=O)[C@H](CC(C)C)NC(=O)[C@H](CC(N)=O)NC(=O)[C@H](Cc1c[nH]c2ccccc12)NC(=O)CCN1CCOCC1)C(C)C)C(=O)NCC(=O)N[C@@H](CC(C)C)C(=O)N[C@@H](CC(C)C)C(=O)N[C@@H](CCCNC(=N)N)C(N)=O` [Compound 137] (X32-WNLVRIGLLR-NH2), the IC50 in assay [1] was ≥ 50 µM; in assay [2] it was 6.7 µM.
